Laboratory results: paper PMC3701070 (PLoS ONE, 2013)

Key:
Assay in all cases: Cell growth assay
Assay type in all cases: cell-based
[1] = system: A204; details: Homo sapiens, 72 h; A204, RAF WT, RAS WT, 3-day; read-out: gIC50
Procedure: (§1) Growth was measured with CellTiter-Glo® (Promega) reagent per the manufacturer’s protocol, using a PerkinElmer EnVision™ reader at t = 0 and 72 h. IC50 values for cell growth inhibition (gIC50) were determined.
(§2) (PDF) Click here for additional data file.

[2] = system: ACHN; details: Homo sapiens, 72 h, RAF WT, RAS WT, 3-day, read-out: gIC50
Procedure: as §1, §2

[3] = system: BC-1; details: Homo sapiens, BC1, 72 h; BC-1, RAF WT, RAS WT, 3-day; read-out: gIC50
Procedure: as §1, §2

[4] = system: BFTC-905; details: Homo sapiens, 72 h; BFTC-905, RAF WT, NRAS(Q61L), 3-day; read-out: gIC50
Procedure: as §1, §2

[5] = system: C32TG; details: Homo sapiens, 72 h, BRAF(V600E), RAS WT, 3-day, read-out: gIC50
Procedure: as §1, §2

[6] = system: CAL-62; details: Homo sapiens, 72 h; CAL-62, RAF WT, RAS WT, 3-day; read-out: gIC50
Procedure: as §1, §2

[7] = system: CHL-1; details: Homo sapiens, 72 h; CHL-1, RAF WT, RAS WT, 3-day; read-out: gIC50
Procedure: as §1, §2

[8] = system: Colo704; details: Homo sapiens, COLO 704, 72 h; Colo704, RAF WT, RAS WT, 3-day; read-out: gIC50
Procedure: as §1, §2

[9] = system: EKVX; details: Homo sapiens, 72 h, RAF WT, RAS WT, 3-day, read-out: gIC50
Procedure: as §1, §2

[10] = system: ES-2; details: Homo sapiens, 72 h; ES-2, BRAF(V600E), RAS WT, 3-day; read-out: gIC50
Procedure: as §1, §2

[11] = system: FaDu; details: Homo sapiens, 72 h, RAF WT, RAS WT, 3-day, read-out: gIC50
Procedure: as §1, §2

[12] = system: HT-3; details: Homo sapiens, 72 h; HT-3, RAF WT, RAS WT, 3-day; read-out: gIC50
Procedure: as §1, §2

[13] = system: Hep3B; details: Homo sapiens, 72 h, RAF WT, RAS WT, 3-day, read-out: gIC50
Procedure: as §1, §2

[14] = system: KM-12; details: Homo sapiens, KM12, 72 h; KM-12, RAF WT, RAS WT, 3-day; read-out: gIC50
Procedure: as §1, §2

[15] = system: KPL-1; details: Homo sapiens, 72 h; KPL-1, RAF WT, RAS WT, 3-day; read-out: gIC50
Procedure: as §1, §2

[16] = system: LS-174T; details: Homo sapiens, LS174T, 72 h, RAF WT, KRAS(G12D), 3-day, read-out: gIC50
Procedure: as §1, §2

[17] = system: NCI-H1792; details: Homo sapiens, 72 h; NCI-H1792, RAF WT, RAS WT, 3-day; read-out: gIC50
Procedure: as §1, §2

[18] = system: NCI-H226; details: Homo sapiens, 72 h; NCI-H226, RAF WT, RAS WT, 3-day; read-out: gIC50
Procedure: as §1, §2

[19] = system: NCI-H292; details: Homo sapiens, 72 h; NCI-H292, RAF WT, RAS WT, 3-day; read-out: gIC50
Procedure: as §1, §2

[20] = system: NCI-H358; details: Homo sapiens, 72 h; NCI-H358, RAF WT, RAS WT, 3-day; read-out: gIC50
Procedure: as §1, §2

[21] = system: OVCAR-3; details: Homo sapiens, 72 h; OVCAR-3, RAF WT, RAS WT, 3-day; read-out: gIC50
Procedure: as §1, §2

[22] = system: PC-3; details: Homo sapiens, 72 h; PC-3, RAF WT, RAS WT, 3-day; read-out: gIC50
Procedure: as §1, §2

[23] = system: RD; details: Homo sapiens, 72 h, RAF WT, RAS WT, 3-day, read-out: gIC50
Procedure: as §1, §2

[24] = system: SCC-13; details: Homo sapiens, 72 h; SCC-13, RAF WT, RAS WT, 3-day; read-out: gIC50
Procedure: as §1, §2

[25] = system: SH-4; details: Homo sapiens, 72 h; SH-4, BRAF(V600E), RAS WT, 3-day; read-out: gIC50
Procedure: as §1, §2

[26] = system: SK-BR-3; details: Homo sapiens, 72 h; SK-BR-3, RAF WT, RAS WT, 3-day; read-out: gIC50
Procedure: as §1, §2

[27] = system: SK-MEL-3; details: Homo sapiens, SK-MEL3, 72 h; SK-MEL-3, BRAF(V600E), RAS WT, 3-day; read-out: gIC50
Procedure: as §1, §2

[28] = system: SNU-5; details: Homo sapiens, 72 h; SNU-5, RAF WT, RAS WT, 3-day; read-out: gIC50
Procedure: as §1, §2

[29] = system: ST486; details: Homo sapiens, 72 h; ST486, RAF WT, RAS WT, 3-day; read-out: gIC50
Procedure: as §1, §2

[30] = system: SW1088; details: Homo sapiens, 72 h; SW1088, RAF WT, RAS WT, 3-day; read-out: gIC50
Procedure: as §1, §2

[31] = system: TK-10; details: Homo sapiens, 72 h; TK-10, RAF WT, RAS WT, 3-day; read-out: gIC50
Procedure: as §1, §2

[32] = system: UACC-62; details: Homo sapiens, 72 h; UACC-62, BRAF(V600E), RAS WT, 3-day; read-out: gIC50
Procedure: as §1, §2

Measured: IC50

CC(C)(C)c1nc(-c2cccc(NS(=O)(=O)c3c(F)cccc3F)c2F)c(-c2ccnc(N)n2)s1 [dabrafenib]
0.053 µM: [10]
0.007 µM: [27]
0.294 µM: [2]
0.001 µM: [5] | [32]
0.008 µM: [25]
0.704 µM: [3]
> 10 µM: all other assays above
